Species: Rattus norvegicus
Experiment: DrugMatrix - Regimen: Daily Repeat
Type: toxicity, organism-based, Sprague-Dawley
Design: regimen Daily Repeat, gender Male, age 6-8 weeks
Details: in vivo, po, route oral GAVAGE, vehicle 100 % WATER; for ABSOLUTE BASOPHIL / ABSOLUTE EOSINOPHIL / ABSOLUTE LYMPHOCYTE / ABSOLUTE MONOCYTE / ABSOLUTE SEGMENTED NEUTROPHIL / BASOPHIL / EOSINOPHIL / ERYTHROCYTE COUNT / HEMATOCRIT / HEMOGLOBIN / LEUKOCYTE COUNT / LYMPHOCYTE / MEAN CORPUSCULAR HEMOGLOBIN / MEAN CORPUSCULAR HEMOGLOBIN CONCENTRATION / MEAN CORPUSCULAR VOLUME / MONOCYTE / NEUTROPHIL / NUCLEATED RED BLOOD CELLS / PLATELET COUNT: tissue Blood; for ALANINE AMINOTRANSFERASE / ALBUMIN / ALKALINE PHOSPHATASE / ASPARTATE AMINOTRANSFERASE / BLOOD UREA NITROGEN / CARBON DIOXIDE / CHLORIDE / CHOLESTEROL / CREATINE PHOSPHOKINASE / CREATININE / GLUCOSE / LACTATE DEHYDROGENASE / LIPASE / PHOSPHORUS / POTASSIUM / SODIUM / TOTAL BILIRUBIN / TOTAL PROTEIN / URIC ACID: tissue Plasma
[1] = 0 mg/kg, 72 h, dose level Control, time 3 day
[2] = 0 mg/kg, 120 h, dose level Control, time 5 day
[3] = 60 mg/kg, 72 h, dose level Low, time 3 day
[4] = 60 mg/kg, 120 h, dose level Low, time 5 day

## ClC(Cl)Cl [CHLOROFORM]
[1]
  ABSOLUTE BASOPHIL: 0 CELLS/uL
  ABSOLUTE EOSINOPHIL: 86.33 CELLS/uL
  ABSOLUTE LYMPHOCYTE: 12090.17 CELLS/uL
  ABSOLUTE MONOCYTE: 166.67 CELLS/uL
  ABSOLUTE SEGMENTED NEUTROPHIL: 1090.17 CELLS/uL
  BASOPHIL: 0%
  EOSINOPHIL: 0.67%
  ERYTHROCYTE COUNT: 5.57 x10E6/uL
  HEMATOCRIT: 35.33%
  HEMOGLOBIN: 13.83 G/DL
  LEUKOCYTE COUNT: 13.43 x10E3/uL
  LYMPHOCYTE: 89.83%
  MEAN CORPUSCULAR HEMOGLOBIN: 24.88 pg
  MEAN CORPUSCULAR HEMOGLOBIN CONCENTRATION: 39.15 G/DL
  MEAN CORPUSCULAR VOLUME: 63.52 fL
  MONOCYTE: 1.17%
  NEUTROPHIL: 8.33%
  NUCLEATED RED BLOOD CELLS: 0 /100WBC
  PLATELET COUNT: 1181.33 x10E3/uL
  ALANINE AMINOTRANSFERASE: 48.33 u/L
  ALBUMIN: 4.1 G/DL
  ALKALINE PHOSPHATASE: 395 u/L
  ASPARTATE AMINOTRANSFERASE: 81.83 u/L
  BLOOD UREA NITROGEN: 15.83 mg/dL
  CARBON DIOXIDE: 24.17 mmol/L
  CHLORIDE: 103.83 MEQ/L
  CHOLESTEROL: 63.67 mg/dL
  CREATINE PHOSPHOKINASE: 372.83 u/L
  CREATININE: 0.18 mg/dL
  GLUCOSE: 173.83 mg/dL
  LACTATE DEHYDROGENASE: 188.33 u/L
  LIPASE: 9.5 u/L
  PHOSPHORUS: 11.95 mg/dL
  POTASSIUM: 5.99 MEQ/L
  SODIUM: 144.43 MEQ/L
  TOTAL BILIRUBIN: 0.15 mg/dL
  TOTAL PROTEIN: 5.95 G/DL
  URIC ACID: 1.82 mg/dL
[2]
  ABSOLUTE BASOPHIL: 0 CELLS/uL
  ABSOLUTE EOSINOPHIL: 26.67 CELLS/uL
  ABSOLUTE LYMPHOCYTE: 7583.83 CELLS/uL
  ABSOLUTE MONOCYTE: 131.33 CELLS/uL
  ABSOLUTE SEGMENTED NEUTROPHIL: 674.83 CELLS/uL
  BASOPHIL: 0%
  EOSINOPHIL: 0.33%
  ERYTHROCYTE COUNT: 5.78 x10E6/uL
  HEMATOCRIT: 36.48%
  HEMOGLOBIN: 14.03 G/DL
  LEUKOCYTE COUNT: 8.42 x10E3/uL
  LYMPHOCYTE: 89.83%
  MEAN CORPUSCULAR HEMOGLOBIN: 24.3 pg
  MEAN CORPUSCULAR HEMOGLOBIN CONCENTRATION: 38.52 G/DL
  MEAN CORPUSCULAR VOLUME: 63.15 fL
  MONOCYTE: 1.67%
  NEUTROPHIL: 8.17%
  NUCLEATED RED BLOOD CELLS: 0 /100WBC
  PLATELET COUNT: 1186.67 x10E3/uL
  ALANINE AMINOTRANSFERASE: 50.17 u/L
  ALBUMIN: 4.07 G/DL
  ALKALINE PHOSPHATASE: 367.5 u/L
  ASPARTATE AMINOTRANSFERASE: 81.67 u/L
  BLOOD UREA NITROGEN: 16.17 mg/dL
  CARBON DIOXIDE: 32.33 mmol/L
  CHLORIDE: 101.5 MEQ/L
  CHOLESTEROL: 65.33 mg/dL
  CREATINE PHOSPHOKINASE: 255.33 u/L
  CREATININE: 0.17 mg/dL
  GLUCOSE: 139.33 mg/dL
  LACTATE DEHYDROGENASE: 95 u/L
  LIPASE: 10.5 u/L
  PHOSPHORUS: 10.38 mg/dL
  POTASSIUM: 6.11 MEQ/L
  SODIUM: 145.55 MEQ/L
  TOTAL BILIRUBIN: 0.17 mg/dL
  TOTAL PROTEIN: 5.98 G/DL
  URIC ACID: 0.93 mg/dL
[3]
  ABSOLUTE BASOPHIL: 0 CELLS/uL
  ABSOLUTE EOSINOPHIL: 102.33 CELLS/uL
  ABSOLUTE LYMPHOCYTE: 13682.67 CELLS/uL
  ABSOLUTE MONOCYTE: 170.33 CELLS/uL
  ABSOLUTE SEGMENTED NEUTROPHIL: 1778 CELLS/uL
  BASOPHIL: 0%
  EOSINOPHIL: 0.67%
  ERYTHROCYTE COUNT: 5.57 x10E6/uL
  HEMATOCRIT: 35.2%
  HEMOGLOBIN: 13.87 G/DL
  LEUKOCYTE COUNT: 15.73 x10E3/uL
  LYMPHOCYTE: 86.67%
  MEAN CORPUSCULAR HEMOGLOBIN: 24.87 pg
  MEAN CORPUSCULAR HEMOGLOBIN CONCENTRATION: 39.37 G/DL
  MEAN CORPUSCULAR VOLUME: 63.2 fL
  MONOCYTE: 1%
  NEUTROPHIL: 11.67%
  NUCLEATED RED BLOOD CELLS: 0 /100WBC
  PLATELET COUNT: 1237 x10E3/uL
  ALANINE AMINOTRANSFERASE: 53 u/L
  ALBUMIN: 3.97 G/DL
  ALKALINE PHOSPHATASE: 363.67 u/L
  ASPARTATE AMINOTRANSFERASE: 98.67 u/L
  BLOOD UREA NITROGEN: 15.33 mg/dL
  CARBON DIOXIDE: 23.33 mmol/L
  CHLORIDE: 103.33 MEQ/L
  CHOLESTEROL: 70.67 mg/dL
  CREATINE PHOSPHOKINASE: 579.33 u/L
  CREATININE: 0.13 mg/dL
  GLUCOSE: 155.67 mg/dL
  LACTATE DEHYDROGENASE: 507.67 u/L
  LIPASE: 9 u/L
  PHOSPHORUS: 12.8 mg/dL
  POTASSIUM: 5.78 MEQ/L
  SODIUM: 143.9 MEQ/L
  TOTAL BILIRUBIN: 0.2 mg/dL
  TOTAL PROTEIN: 5.67 G/DL
  URIC ACID: 1.83 mg/dL
[4]
  ABSOLUTE BASOPHIL: 0 CELLS/uL
  ABSOLUTE EOSINOPHIL: 47.67 CELLS/uL
  ABSOLUTE LYMPHOCYTE: 10405 CELLS/uL
  ABSOLUTE MONOCYTE: 114.67 CELLS/uL
  ABSOLUTE SEGMENTED NEUTROPHIL: 899.33 CELLS/uL
  BASOPHIL: 0%
  EOSINOPHIL: 0.33%
  ERYTHROCYTE COUNT: 6.07 x10E6/uL
  HEMATOCRIT: 37.63%
  HEMOGLOBIN: 14.23 G/DL
  LEUKOCYTE COUNT: 11.47 x10E3/uL
  LYMPHOCYTE: 90%
  MEAN CORPUSCULAR HEMOGLOBIN: 23.5 pg
  MEAN CORPUSCULAR HEMOGLOBIN CONCENTRATION: 37.87 G/DL
  MEAN CORPUSCULAR VOLUME: 62.07 fL
  MONOCYTE: 1%
  NEUTROPHIL: 8.67%
  NUCLEATED RED BLOOD CELLS: 0 /100WBC
  PLATELET COUNT: 1244.67 x10E3/uL
  ALANINE AMINOTRANSFERASE: 54.33 u/L
  ALBUMIN: 4.27 G/DL
  ALKALINE PHOSPHATASE: 299.67 u/L
  ASPARTATE AMINOTRANSFERASE: 84.33 u/L
  BLOOD UREA NITROGEN: 16 mg/dL
  CARBON DIOXIDE: 30.67 mmol/L
  CHLORIDE: 102 MEQ/L
  CHOLESTEROL: 59.67 mg/dL
  CREATINE PHOSPHOKINASE: 401 u/L
  CREATININE: 0.22 mg/dL
  GLUCOSE: 139.33 mg/dL
  LACTATE DEHYDROGENASE: 140 u/L
  LIPASE: 10 u/L
  PHOSPHORUS: 10.83 mg/dL
